The text below walks through data of ChEMBL document CHEMBL1201862, “PubChem BioAssay data set” (2004).

For one test, the target named is Large T antigen (Simian virus 40, UniProt P03070). It counts as functional, Betapolyomavirus macacae.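 Further: Confirmatory-stage PubChem screen for compounds that inhibit SV40 T antigen.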
The target in test [1] is T1, Mannose-6-phosphate isomerase (Homo sapiens, UniProt P34949).
T1 sequence (P34949 whole entry): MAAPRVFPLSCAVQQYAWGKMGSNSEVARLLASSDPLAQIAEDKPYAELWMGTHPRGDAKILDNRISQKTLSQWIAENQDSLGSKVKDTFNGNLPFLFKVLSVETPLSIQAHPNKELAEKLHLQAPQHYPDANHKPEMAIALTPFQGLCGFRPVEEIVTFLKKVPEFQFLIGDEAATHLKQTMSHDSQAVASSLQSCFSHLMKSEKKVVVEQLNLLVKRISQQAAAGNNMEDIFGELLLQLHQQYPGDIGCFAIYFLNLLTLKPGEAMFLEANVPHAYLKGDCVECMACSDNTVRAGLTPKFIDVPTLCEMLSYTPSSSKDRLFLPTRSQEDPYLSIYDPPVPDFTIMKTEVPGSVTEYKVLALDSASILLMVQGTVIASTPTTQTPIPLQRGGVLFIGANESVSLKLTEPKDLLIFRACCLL
Put plainly: inhibitors of human PMI, primary screen, biochemical, fluorescence intensity, coupled assay (AID 1209).

Test [2] concerns the target Sphingosine 1-phosphate receptor 2 (Homo sapiens, UniProt O95136). Nature of the test: Dose Response Cell Based Assay for Antagonists of the S1P2 Receptor. [Related pubchem assays: 856, 736 ]. It counts as functional.
Test [3] concerns the target T2, RNA-editing ligase 1, mitochondrial (Trypanosoma brucei brucei, UniProt P86926).
T2 sequence (P86926 whole entry): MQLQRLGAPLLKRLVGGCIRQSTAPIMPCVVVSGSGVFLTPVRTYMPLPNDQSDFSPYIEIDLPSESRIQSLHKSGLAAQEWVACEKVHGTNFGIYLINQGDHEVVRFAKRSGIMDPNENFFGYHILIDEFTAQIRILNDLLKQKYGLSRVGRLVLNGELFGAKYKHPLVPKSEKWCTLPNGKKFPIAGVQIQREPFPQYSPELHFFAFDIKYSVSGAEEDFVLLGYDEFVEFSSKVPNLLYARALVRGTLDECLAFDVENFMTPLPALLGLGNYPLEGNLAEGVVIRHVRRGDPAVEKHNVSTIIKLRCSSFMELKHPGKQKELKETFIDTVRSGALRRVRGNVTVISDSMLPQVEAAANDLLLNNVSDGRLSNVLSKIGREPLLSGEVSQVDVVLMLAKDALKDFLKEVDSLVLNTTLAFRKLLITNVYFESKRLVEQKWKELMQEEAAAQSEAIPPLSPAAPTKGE
Put plainly: TbREL1 ligase inhibitors, dose response, biochemical, fluorescence, Trypanosoma brucei (AID 1117295). It is filed as functional.

The next test has as its target T3, Leucine aminopeptidase (Plasmodium falciparum 3D7, UniProt Q8IL11).
T3 sequence (Q8IL11 whole entry): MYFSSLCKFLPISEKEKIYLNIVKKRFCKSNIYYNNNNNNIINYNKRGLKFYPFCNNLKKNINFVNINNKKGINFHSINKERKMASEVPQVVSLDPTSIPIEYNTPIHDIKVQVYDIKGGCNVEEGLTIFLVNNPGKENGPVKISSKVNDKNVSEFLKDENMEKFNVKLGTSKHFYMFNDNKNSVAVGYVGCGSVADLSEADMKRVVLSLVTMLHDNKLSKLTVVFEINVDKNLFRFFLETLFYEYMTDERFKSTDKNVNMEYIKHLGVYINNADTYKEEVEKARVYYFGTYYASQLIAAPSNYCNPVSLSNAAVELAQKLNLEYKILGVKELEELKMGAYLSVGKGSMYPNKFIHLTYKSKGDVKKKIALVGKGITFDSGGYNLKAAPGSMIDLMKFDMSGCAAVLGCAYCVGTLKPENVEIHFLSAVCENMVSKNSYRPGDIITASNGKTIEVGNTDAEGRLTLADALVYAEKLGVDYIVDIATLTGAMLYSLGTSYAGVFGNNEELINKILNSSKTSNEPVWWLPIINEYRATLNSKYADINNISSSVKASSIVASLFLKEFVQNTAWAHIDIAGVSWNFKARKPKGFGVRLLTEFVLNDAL
Put plainly: P. falciparum M17LAP inhibitors, primary screen, biochemical, fluorogenic H-Leu-NHMec substrate, 1536-well (AID 1619). It counts as functional.

A further test concerns the target T4, Aspartyl aminopeptidase (Plasmodium falciparum 3D7, UniProt Q8I2J3).
T4 sequence (Q8I2J3 whole entry): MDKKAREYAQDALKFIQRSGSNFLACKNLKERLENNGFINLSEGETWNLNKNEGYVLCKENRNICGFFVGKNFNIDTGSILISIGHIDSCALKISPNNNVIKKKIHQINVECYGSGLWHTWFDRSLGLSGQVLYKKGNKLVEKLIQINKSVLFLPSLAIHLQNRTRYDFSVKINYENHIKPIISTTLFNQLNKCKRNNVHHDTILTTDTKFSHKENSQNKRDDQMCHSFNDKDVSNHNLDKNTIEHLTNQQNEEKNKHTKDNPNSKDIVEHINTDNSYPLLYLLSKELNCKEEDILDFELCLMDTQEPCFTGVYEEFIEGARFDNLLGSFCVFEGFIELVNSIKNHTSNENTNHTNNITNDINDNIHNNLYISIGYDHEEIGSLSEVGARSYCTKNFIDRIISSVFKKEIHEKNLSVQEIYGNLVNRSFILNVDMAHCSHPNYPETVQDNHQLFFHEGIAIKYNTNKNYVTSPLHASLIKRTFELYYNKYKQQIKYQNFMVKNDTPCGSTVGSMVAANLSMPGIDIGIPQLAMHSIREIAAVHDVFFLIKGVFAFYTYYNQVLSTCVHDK
Nature of the test: Counterscreen for inhibitors of M1 and M17 aminopeptidases: QFRET-based biochemical high throughput dose response assay for inhibitors of the Plasmodium falciparum M18 Aspartyl Aminopeptidase (PFM18AAP). [Related PubChem assays: 1619 (Screening assay (M17LAP inhibitors).), 1445 (Screening assay (M1AAP inhibitors).)]. A general note: Counterscreens check selectivity or assay interference.

In the next test the target is Procathepsin L (Homo sapiens, UniProt P07711). Nature of the test: cathepsin L inhibitors, dose response, counter-screen for M1/M17 aminopeptidase inhibitor project, biochemical, QFRET, 1536-well (AID 2214).
Procathepsin L, sequence (P07711 whole entry): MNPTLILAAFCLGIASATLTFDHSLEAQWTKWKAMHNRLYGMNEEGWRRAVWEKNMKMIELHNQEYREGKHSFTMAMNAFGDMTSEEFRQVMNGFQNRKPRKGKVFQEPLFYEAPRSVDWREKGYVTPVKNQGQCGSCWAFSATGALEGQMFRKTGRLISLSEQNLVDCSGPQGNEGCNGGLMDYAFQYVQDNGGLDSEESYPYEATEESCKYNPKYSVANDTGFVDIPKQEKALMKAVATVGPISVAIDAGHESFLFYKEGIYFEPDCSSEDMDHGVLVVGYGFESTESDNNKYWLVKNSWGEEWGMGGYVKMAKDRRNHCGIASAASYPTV
Test [4] in a line: inhibitors of intracellular T. cruzi replication, confirmation, NIH3T3 host cells, beta-gal luminescence (AID 2044).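 Further: intracellular parasites grown in NIH/3T3 mouse fibroblasts as host cells; luminescent beta-galactosidase reporter signal from transgenic T. cruzi replicating inside host cells; inhibitors lower the luminescence signal.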 It is filed as functional, cell-based.
The nature of test [5]: cytotoxicity toward NIH3T3 fibroblasts, dose response, counter-screen, cell-based, ATP luminescence, mouse fibroblasts (AID 2010).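 Further: cells exposed to compound for about 90 hours before reading.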 It is filed as functional.

The source made the active and inactive calls.

Sphingosine 1-phosphate receptor 2, sequence (O95136 whole entry): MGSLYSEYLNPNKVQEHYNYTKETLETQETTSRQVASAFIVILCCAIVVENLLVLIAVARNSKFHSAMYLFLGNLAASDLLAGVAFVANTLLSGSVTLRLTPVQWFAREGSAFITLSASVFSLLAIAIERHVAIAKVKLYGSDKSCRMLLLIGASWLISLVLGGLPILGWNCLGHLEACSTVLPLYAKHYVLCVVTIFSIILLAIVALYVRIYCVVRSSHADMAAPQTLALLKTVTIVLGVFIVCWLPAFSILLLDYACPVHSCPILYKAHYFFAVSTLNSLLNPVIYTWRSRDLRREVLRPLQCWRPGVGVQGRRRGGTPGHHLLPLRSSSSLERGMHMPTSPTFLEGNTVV
Large T antigen, sequence (P03070 whole entry): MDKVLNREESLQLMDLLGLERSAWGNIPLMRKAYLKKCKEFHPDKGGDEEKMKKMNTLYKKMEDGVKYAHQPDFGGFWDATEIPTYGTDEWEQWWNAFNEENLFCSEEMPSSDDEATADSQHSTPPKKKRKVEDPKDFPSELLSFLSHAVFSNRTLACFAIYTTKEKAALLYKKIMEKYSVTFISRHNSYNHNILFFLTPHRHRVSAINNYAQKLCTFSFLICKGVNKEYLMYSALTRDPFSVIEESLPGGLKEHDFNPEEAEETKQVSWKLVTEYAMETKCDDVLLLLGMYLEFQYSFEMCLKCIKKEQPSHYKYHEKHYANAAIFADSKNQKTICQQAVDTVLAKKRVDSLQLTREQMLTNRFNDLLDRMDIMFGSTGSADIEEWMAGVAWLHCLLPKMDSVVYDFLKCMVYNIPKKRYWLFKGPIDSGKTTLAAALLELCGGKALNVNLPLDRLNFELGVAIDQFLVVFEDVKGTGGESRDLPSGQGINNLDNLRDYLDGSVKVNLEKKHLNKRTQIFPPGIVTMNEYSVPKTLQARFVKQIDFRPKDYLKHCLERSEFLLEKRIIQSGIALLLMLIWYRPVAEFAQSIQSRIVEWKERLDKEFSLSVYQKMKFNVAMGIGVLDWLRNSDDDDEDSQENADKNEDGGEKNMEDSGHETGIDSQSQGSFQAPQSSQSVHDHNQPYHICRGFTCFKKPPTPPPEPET

Take `COc1ccccc1N1CCN(/N=C/c2ccc(O)c(O)c2)CC1`: the 50% inhibitory concentration (IC50) on Large T antigen was 15 µM (active); in test [1], > 50 µM (not active).

Turning to `Cc1n[nH]c(C)c1N1C(=O)c2cccc3c(Br)ccc(c23)C1=O`, in test [2], the concentration for half-maximal inhibition (IC50) is given as > 75.5 µM (not active).

In the case of `CC(C)Nc1nc(NCCOc2ccccc2Cl)c2sc(-c3ccccc3)cc2n1`, the IC50 in [3] is > 96.6 µM (inactive).

`Cn1c(=O)c([N+](=O)[O-])c(Oc2ccccc2)c2ccccc21`: the IC50 in [1] was > 50 µM (not active).

In the case of `Cc1ccc(-n2c(C)cc(C(=O)COC(=O)c3ccc[nH]c3=O)c2C)cc1C`, the results for the half-maximal inhibitory concentration (IC50) on Leucine aminopeptidase, against Aspartyl aminopeptidase and against Procathepsin L were 1.45 µM (active), > 73.5 µM (not active) and > 59.6 µM (not active), respectively.

Turning to `O=C(CSc1nccc(O)n1)Nc1ccc(Br)c(Cl)c1`, the results for the 50% inhibitory concentration (IC50) at Leucine aminopeptidase, on Aspartyl aminopeptidase and against Procathepsin L were 2.5 µM (active), > 73.5 µM (not active) and > 59.6 µM (not active), respectively.

Regarding `COC(=O)C1=C(C)N(Cc2ccccc2C(F)(F)F)C(NCc2ccccc2)=NC1c1cccc(F)c1` (stereo not given), in test [3], the IC50 is > 96.6 µM (inactive).

With `COc1cc(CN(C)CCc2ccccc2)ccc1OCc1ccccc1`, the EC50 in test [4] is < 0.1 µM (active); in test [5], 19.1 µM (active); in “cells” it was 0.006 µM (active).

The term IC50 denotes the midpoint of a concentration-inhibition curve. A word on the EC50: it is the concentration that produces a half-maximal response.
